Reference: the kinase profiling compilation of Christmann-Franck et al. (2016)

Assays:
Assay in all cases: radiometric filter-binding kinase assay
PIM2 (human) = PIM2 (human) (UniProt Q9P1W9)
PAK4 (human) = PAK4 (human) (UniProt O96013)
INSR (human) = INSR (human) (UniProt P06213)
MARK1 (human) = MARK1 (human) (UniProt Q9P0L2)
GCK (human) = GCK (human) (UniProt Q12851)
STK16 (human) = STK16 (human) (UniProt O75716)
SYK (human) = SYK (human) (UniProt P43405)
BTK (human) = BTK (human) (UniProt Q06187)
IKBKE (human) = IKBKE (human) (UniProt Q14164)
PTK6 (human) = PTK6 (human) (UniProt Q13882)
Sequence of PTK6 (human) (Q13882 whole entry, looked up): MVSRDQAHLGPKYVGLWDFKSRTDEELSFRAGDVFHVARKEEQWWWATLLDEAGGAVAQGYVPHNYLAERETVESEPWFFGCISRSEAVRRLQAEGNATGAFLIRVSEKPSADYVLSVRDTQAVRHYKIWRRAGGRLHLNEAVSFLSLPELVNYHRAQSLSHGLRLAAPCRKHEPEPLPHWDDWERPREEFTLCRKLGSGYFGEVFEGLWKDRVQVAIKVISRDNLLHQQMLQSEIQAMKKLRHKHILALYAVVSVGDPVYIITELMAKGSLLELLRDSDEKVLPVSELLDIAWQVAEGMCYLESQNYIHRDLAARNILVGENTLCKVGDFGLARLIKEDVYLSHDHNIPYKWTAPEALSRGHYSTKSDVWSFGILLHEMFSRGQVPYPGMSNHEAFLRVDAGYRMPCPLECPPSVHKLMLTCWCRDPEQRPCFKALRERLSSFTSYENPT

GSK3B (human) = GSK3B (human) (UniProt P49841)
CSNK2A1 (human) = CSNK2A1 (human) (UniProt P68400)
Sequence of CSNK2A1 (human) (P68400 whole entry, looked up): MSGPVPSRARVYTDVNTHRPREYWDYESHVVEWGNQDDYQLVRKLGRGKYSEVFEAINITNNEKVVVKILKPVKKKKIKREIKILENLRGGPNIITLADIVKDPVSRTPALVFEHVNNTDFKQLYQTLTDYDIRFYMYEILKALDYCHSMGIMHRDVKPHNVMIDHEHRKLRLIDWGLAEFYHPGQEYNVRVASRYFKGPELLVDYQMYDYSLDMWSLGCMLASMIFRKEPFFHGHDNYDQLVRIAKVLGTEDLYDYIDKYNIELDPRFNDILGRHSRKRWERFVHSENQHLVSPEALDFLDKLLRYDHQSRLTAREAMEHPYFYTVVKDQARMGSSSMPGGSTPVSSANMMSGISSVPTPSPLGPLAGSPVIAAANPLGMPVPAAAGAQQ

EPHB2 (human) = EPHB2 (human) (UniProt P29323)
Sequence of EPHB2 (human) (P29323 whole entry, looked up): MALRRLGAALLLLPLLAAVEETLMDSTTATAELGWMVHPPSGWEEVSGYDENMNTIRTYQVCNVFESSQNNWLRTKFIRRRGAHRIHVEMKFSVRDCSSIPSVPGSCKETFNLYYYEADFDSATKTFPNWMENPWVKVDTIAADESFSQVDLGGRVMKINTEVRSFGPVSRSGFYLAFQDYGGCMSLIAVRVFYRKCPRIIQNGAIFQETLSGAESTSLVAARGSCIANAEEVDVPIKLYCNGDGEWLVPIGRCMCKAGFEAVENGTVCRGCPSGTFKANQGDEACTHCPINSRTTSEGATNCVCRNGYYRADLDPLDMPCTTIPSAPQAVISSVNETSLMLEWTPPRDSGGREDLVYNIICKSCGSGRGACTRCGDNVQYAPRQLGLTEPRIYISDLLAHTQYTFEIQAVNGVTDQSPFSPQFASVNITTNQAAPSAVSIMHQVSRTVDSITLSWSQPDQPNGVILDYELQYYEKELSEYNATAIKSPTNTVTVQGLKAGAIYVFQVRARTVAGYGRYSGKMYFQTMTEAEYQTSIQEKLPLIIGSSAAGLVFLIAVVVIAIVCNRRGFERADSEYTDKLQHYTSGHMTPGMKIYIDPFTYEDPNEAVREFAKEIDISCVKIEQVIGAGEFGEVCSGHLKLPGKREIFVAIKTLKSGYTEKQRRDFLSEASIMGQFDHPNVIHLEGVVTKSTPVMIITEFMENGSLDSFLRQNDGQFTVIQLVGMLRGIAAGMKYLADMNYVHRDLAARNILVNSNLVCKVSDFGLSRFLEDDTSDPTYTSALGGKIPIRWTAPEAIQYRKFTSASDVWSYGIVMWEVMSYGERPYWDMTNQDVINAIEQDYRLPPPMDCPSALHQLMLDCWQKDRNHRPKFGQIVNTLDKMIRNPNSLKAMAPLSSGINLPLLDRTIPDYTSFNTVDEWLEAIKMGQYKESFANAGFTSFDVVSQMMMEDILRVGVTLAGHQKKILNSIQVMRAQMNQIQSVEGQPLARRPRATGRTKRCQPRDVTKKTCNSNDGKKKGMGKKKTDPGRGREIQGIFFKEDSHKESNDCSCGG

INSRR (human) = INSRR (human) (UniProt P14616)
[1] = test system: AKT2 (human), P31751 [S474D]
Sequence of AKT2 (human), P31751 [S474D] (P31751 whole entry S474D, looked up): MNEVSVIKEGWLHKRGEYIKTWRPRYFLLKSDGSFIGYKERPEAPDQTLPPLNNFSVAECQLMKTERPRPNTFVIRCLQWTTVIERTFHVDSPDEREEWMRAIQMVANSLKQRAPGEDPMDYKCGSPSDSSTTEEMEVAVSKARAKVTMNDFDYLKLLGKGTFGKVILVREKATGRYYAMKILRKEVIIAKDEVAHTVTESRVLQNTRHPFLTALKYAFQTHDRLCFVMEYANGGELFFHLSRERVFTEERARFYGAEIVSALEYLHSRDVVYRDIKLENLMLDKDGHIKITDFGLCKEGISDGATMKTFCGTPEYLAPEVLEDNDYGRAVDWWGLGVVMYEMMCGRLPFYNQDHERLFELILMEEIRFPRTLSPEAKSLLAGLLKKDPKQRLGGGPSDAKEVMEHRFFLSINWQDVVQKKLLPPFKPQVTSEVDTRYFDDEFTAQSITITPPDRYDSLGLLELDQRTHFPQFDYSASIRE

ERBB4 (human) = ERBB4 (human) (UniProt Q15303)
MAPK9 (human) = MAPK9 (human) (UniProt P45984)
Sequence of MAPK9 (human) (P45984 whole entry, looked up): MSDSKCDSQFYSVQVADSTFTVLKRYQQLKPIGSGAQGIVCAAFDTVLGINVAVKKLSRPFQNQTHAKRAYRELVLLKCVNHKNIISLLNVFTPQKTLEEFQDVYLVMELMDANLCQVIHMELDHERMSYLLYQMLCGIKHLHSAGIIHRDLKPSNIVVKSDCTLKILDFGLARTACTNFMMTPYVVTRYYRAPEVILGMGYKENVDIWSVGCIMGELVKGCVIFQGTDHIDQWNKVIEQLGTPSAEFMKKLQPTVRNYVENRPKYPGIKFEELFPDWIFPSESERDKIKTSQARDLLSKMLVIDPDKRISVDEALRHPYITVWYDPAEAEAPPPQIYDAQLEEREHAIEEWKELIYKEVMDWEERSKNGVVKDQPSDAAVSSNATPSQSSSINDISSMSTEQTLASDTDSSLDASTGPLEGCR

CDK2 CCNA2 (human) = CDK2 CCNA2 (human) (UniProt P20248+P24941)
STK3 (human) = STK3 (human) (UniProt Q13188)
[2] = test system: OXSR1 (human), O95747 [T185E]
TBK1 (human) = TBK1 (human) (UniProt Q9UHD2)
MAP3K5 (human) = MAP3K5 (human) (UniProt Q99683)
Sequence of MAP3K5 (human) (Q99683 whole entry, looked up): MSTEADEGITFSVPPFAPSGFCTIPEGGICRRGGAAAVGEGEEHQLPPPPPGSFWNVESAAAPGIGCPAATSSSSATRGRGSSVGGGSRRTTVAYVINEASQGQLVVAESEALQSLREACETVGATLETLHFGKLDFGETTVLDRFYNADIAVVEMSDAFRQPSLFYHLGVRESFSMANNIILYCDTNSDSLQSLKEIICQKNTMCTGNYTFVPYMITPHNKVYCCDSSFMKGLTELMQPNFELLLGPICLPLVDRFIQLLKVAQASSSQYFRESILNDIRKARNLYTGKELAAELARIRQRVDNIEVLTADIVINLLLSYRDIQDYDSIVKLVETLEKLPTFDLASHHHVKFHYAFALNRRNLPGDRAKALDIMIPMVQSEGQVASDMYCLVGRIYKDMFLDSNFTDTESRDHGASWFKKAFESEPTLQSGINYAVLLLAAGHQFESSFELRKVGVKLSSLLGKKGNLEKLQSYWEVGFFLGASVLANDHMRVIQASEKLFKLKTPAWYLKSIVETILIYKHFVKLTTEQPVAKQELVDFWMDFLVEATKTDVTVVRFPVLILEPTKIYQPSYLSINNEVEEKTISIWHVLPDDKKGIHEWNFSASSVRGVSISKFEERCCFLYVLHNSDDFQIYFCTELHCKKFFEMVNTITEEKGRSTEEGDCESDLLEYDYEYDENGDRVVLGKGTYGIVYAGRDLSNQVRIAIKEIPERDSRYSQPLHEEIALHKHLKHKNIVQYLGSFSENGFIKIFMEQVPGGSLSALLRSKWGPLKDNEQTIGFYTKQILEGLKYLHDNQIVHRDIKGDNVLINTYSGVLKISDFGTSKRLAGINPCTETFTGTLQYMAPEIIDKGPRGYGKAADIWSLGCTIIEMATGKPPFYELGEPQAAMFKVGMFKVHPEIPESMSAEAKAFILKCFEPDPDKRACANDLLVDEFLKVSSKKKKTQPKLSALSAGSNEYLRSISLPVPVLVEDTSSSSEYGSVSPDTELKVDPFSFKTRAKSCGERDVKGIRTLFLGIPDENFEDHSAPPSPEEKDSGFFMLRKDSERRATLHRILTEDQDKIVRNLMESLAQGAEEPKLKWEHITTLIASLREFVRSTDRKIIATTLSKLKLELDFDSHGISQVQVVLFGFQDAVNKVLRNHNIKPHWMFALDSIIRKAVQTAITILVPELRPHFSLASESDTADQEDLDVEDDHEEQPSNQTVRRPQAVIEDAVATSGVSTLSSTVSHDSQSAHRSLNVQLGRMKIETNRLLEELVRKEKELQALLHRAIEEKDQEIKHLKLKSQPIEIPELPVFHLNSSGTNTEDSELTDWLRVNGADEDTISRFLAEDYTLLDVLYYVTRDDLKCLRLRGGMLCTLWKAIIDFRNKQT

STK33 (human) = STK33 (human) (UniProt Q9BYT3)
MAP2K1 (human) = MAP2K1 (human) (UniProt Q02750)
PRKCG (human) = PRKCG (human) (UniProt P05129)
CHEK1 (human) = CHEK1 (human) (UniProt O14757)
Sequence of CHEK1 (human) (O14757 whole entry, looked up): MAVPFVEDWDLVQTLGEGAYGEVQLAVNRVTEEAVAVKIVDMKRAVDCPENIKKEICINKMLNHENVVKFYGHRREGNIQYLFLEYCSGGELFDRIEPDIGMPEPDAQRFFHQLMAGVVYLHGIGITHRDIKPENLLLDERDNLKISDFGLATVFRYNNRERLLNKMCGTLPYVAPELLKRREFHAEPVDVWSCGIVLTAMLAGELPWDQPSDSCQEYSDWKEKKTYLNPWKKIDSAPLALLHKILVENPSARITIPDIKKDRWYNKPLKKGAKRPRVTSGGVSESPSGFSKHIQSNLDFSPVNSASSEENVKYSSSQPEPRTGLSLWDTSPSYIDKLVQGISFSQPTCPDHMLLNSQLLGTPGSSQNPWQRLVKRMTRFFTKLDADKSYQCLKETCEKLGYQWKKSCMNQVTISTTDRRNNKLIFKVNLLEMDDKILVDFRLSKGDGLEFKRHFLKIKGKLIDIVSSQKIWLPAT

EPHA2 (human) = EPHA2 (human) (UniProt P29317)
HIPK3 (human) = HIPK3 (human) (UniProt Q9H422)
MST4 (human) = MST4 (human) (UniProt Q9P289)

Sequence of STK16 (human) (O75716 whole entry, looked up): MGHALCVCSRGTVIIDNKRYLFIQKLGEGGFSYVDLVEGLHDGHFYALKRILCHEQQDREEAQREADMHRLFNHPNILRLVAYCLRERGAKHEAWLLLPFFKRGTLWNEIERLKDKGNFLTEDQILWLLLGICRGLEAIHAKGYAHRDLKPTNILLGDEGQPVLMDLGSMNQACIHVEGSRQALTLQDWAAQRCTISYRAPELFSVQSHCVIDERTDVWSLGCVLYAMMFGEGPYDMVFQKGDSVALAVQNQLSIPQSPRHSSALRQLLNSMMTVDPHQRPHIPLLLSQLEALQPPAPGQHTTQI

CCN1CCN(Cc2ccc(NC(=O)c3ccc(C)c(Oc4ccnc5[nH]ccc45)c3)cc2C(F)(F)F)CC1 showed a residual activity (PIM2 (human); compound 0.1 µM) of 106%, a residual activity (PIM2 (human); compound 1.0 µM) of 95% and a residual activity (PIM2 (human); compound 10.0 µM) of 102%. It also gave a residual activity (PAK4 (human); compound 0.1 µM) of 109%, a residual activity (PAK4 (human); compound 1.0 µM) of 99.4% and a residual activity (PAK4 (human); compound 10.0 µM) of 77.8%. The residual activity (INSR (human); compound 0.1 µM) was 86.1%, the residual activity (INSR (human); compound 1.0 µM) was 81.6% and the residual activity (INSR (human); compound 10.0 µM) was 18%. For the same molecule, the residual activity (MARK1 (human); compound 0.1 µM) was 114%, the residual activity (MARK1 (human); compound 1.0 µM) was 97.2% and the residual activity (MARK1 (human); compound 10.0 µM) was 103%. For the same molecule, the residual activity (GCK (human); compound 0.1 µM) was 24.1%, the residual activity (GCK (human); compound 1.0 µM) was 12.3% and the residual activity (GCK (human); compound 10.0 µM) was 9.08%. For the same molecule, the residual activity (STK16 (human); compound 0.1 µM) was 103%, the residual activity (STK16 (human); compound 1.0 µM) was 90.7% and the residual activity (STK16 (human); compound 10.0 µM) was 99.2%. It also gave a residual activity (SYK (human); compound 0.1 µM) of 103%, a residual activity (SYK (human); compound 1.0 µM) of 47.1% and a residual activity (SYK (human); compound 10.0 µM) of 11.5%. It also gave a residual activity (BTK (human); compound 0.1 µM) of 103%, a residual activity (BTK (human); compound 1.0 µM) of 85.3% and a residual activity (BTK (human); compound 10.0 µM) of 34.2%. The residual activity (IKBKE (human); compound 0.1 µM) was 106%, the residual activity (IKBKE (human); compound 1.0 µM) was 96.6% and the residual activity (IKBKE (human); compound 10.0 µM) was 80.1%. It also gave a residual activity (PTK6 (human); compound 0.1 µM) of 101%, a residual activity (PTK6 (human); compound 1.0 µM) of 43.1% and a residual activity (PTK6 (human); compound 10.0 µM) of 6.76%. For the same molecule, the residual activity (GSK3B (human); compound 0.1 µM) was 102%, the residual activity (GSK3B (human); compound 1.0 µM) was 104% and the residual activity (GSK3B (human); compound 10.0 µM) was 101%. The residual activity (CSNK2A1 (human); compound 0.1 µM) was 90.2%, the residual activity (CSNK2A1 (human); compound 1.0 µM) was 94.1% and the residual activity (CSNK2A1 (human); compound 10.0 µM) was 98.5%. It also gave a residual activity (EPHB2 (human); compound 0.1 µM) of 88.5%, a residual activity (EPHB2 (human); compound 1.0 µM) of 23.4% and a residual activity (EPHB2 (human); compound 10.0 µM) of 3.11%. The residual activity (INSRR (human); compound 0.1 µM) was 112%, the residual activity (INSRR (human); compound 1.0 µM) was 91.3% and the residual activity (INSRR (human); compound 10.0 µM) was 46.1%. It also gave a residual activity ([1]; compound 0.1 µM) of 105%, a residual activity ([1]; compound 1.0 µM) of 114% and a residual activity ([1]; compound 10.0 µM) of 49.3%. The residual activity (ERBB4 (human); compound 0.1 µM) was 105%, the residual activity (ERBB4 (human); compound 1.0 µM) was 76.8% and the residual activity (ERBB4 (human); compound 10.0 µM) was 36.9%. For the same molecule, the residual activity (MAPK9 (human); compound 0.1 µM) was 90.8%, the residual activity (MAPK9 (human); compound 1.0 µM) was 21.8% and the residual activity (MAPK9 (human); compound 10.0 µM) was 4.89%. The residual activity (CDK2 CCNA2 (human); compound 0.1 µM) was 110%, the residual activity (CDK2 CCNA2 (human); compound 1.0 µM) was 112% and the residual activity (CDK2 CCNA2 (human); compound 10.0 µM) was 99.9%. It also gave a residual activity (STK3 (human); compound 0.1 µM) of 111%, a residual activity (STK3 (human); compound 1.0 µM) of 124% and a residual activity (STK3 (human); compound 10.0 µM) of 91.5%. The residual activity ([2]; compound 0.1 µM) was 54%, the residual activity ([2]; compound 10.0 µM) was 1.79% and the residual activity (TBK1 (human); compound 0.1 µM) was 113%. It also gave a residual activity (TBK1 (human); compound 1.0 µM) of 100%, a residual activity (TBK1 (human); compound 10.0 µM) of 96% and a residual activity (MAP3K5 (human); compound 0.1 µM) of 111%. The residual activity (MAP3K5 (human); compound 1.0 µM) was 105%, the residual activity (MAP3K5 (human); compound 10.0 µM) was 76.5% and the residual activity (STK33 (human); compound 0.1 µM) was 106%. For the same molecule, the residual activity (STK33 (human); compound 1.0 µM) was 96.7%, the residual activity (STK33 (human); compound 10.0 µM) was 79.6% and the residual activity (MAP2K1 (human); compound 0.1 µM) was 106%. For the same molecule, the residual activity (MAP2K1 (human); compound 1.0 µM) was 108%, the residual activity (MAP2K1 (human); compound 10.0 µM) was 93.2% and the residual activity (PRKCG (human); compound 0.1 µM) was 108%. It also gave a residual activity (PRKCG (human); compound 1.0 µM) of 102%, a residual activity (PRKCG (human); compound 10.0 µM) of 106% and a residual activity (CHEK1 (human); compound 0.1 µM) of 114%. For the same molecule, the residual activity (CHEK1 (human); compound 1.0 µM) was 105%, the residual activity (CHEK1 (human); compound 10.0 µM) was 110% and the residual activity (EPHA2 (human); compound 0.1 µM) was 74%. The residual activity (EPHA2 (human); compound 1.0 µM) was 19.5%, the residual activity (EPHA2 (human); compound 10.0 µM) was 13.7% and the residual activity (HIPK3 (human); compound 0.1 µM) was 110%. The residual activity (HIPK3 (human); compound 1.0 µM) was 70.3%, the residual activity (HIPK3 (human); compound 10.0 µM) was 19.8% and the residual activity (MST4 (human); compound 0.1 µM) was 95%. For the same molecule, the residual activity (MST4 (human); compound 1.0 µM) was 78% and the residual activity (MST4 (human); compound 10.0 µM) was 32.1%.
